Assay in all cases: growth of human tumour cells (NCI), 48 h
Assay [1] deals with MDA-MB-435.
In assay [2] the test system is HT29 colon.
Assay [3] concerns KM12 colon.
The subject of assay [4] is MDA-MB-231 breast.
Assay [5] concerns NCI-H226 lung.
Assay [6] has as its system SF-268 CNS.
Assay [7] relates to RXF 393 renal.
In assay [8] the test system is HCC-2998 colon.
The subject of assay [9] is MALME-3M melanoma.
The test system of assay [10] is NCI/ADR-RES ovarian.

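Step 1: Grow cells in 96-well plates. Step 2: Expose to compound for 48 hours at 5 concentrations. Step 3: Interpolate endpoints linearly; if unreached, use highest concentration. The concentration for 50% growth inhibition is given as GI50. Definition used: TGI = concentration required for complete inhibition of growth.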

For `Cc1cn2c(/C=C3/C(=O)Nc4ccccc43)c(-c3ccc(Cl)cc3)nc2s1`, the GI50 in assay [1] is 8.07 µM; in [2], 9.23 µM; in assay [3] it was 10.5 µM; in [4], 2.34 µM; in [5], 7.04 µM; in assay [6] it was 7.41 µM. Moreover, the GI50 in assay [7] is 3.72 µM. In addition, the TGI in assay [1] worked out at 14.8 µM; in assay [2], 16.2 µM; in assay [3] it was 23.2 µM; in assay [4], 9.45 µM; in [5], 21.3 µM; in [6] it was 24.4 µM. This molecule also registered a TGI in [7] of 12.9 µM.
Consider `N#CC(/C(=N/NC(=O)C(=O)NN)C(=O)NC12CC3CC(CC(C3)C1)C2)c1ccccc1` (centres undefined), for which the TGI in [2], in [8], in assay [3], in assay [5], in assay [6] and in [7] was > 100 µM throughout. The TGI in assay [9] was > 100 µM.
With `O=C(CCC(=O)Nc1cccc(Cl)c1)CC(=O)c1ccc(Cl)cc1`, the TGI in assay [2], in assay [8], in assay [3], in [5], in [6] and in assay [9] was > 100 µM throughout.
For `O=C(Nc1cccc(Cl)c1Cl)c1cccc(NC2=C(Cl)C(=O)N(Cc3ccccc3)C2=O)c1`, the GI50 is 20.4 µM in assay [1]; 79.9 µM in assay [2]; 82.8 µM in assay [3]; 32.2 µM in [4]; 31.7 µM in [5]; 27.7 µM in assay [6]. Further, the GI50 was > 100 µM in assay [9] and 12.6 µM in assay [10]. Besides, the TGI is 53.2 µM in assay [1]; > 100 µM in assay [2]; > 100 µM in assay [3]; > 100 µM in assay [4]; > 100 µM in assay [5]; > 100 µM in assay [6]. The TGI in [9] is > 100 µM; in assay [10], 62.5 µM.
For the molecule `O=C(CN1CCCCC1)N1CCc2c([nH]c3ccccc23)C1c1cccnc1` (centres undefined), the TGI in assay [2], in [8], in assay [3], in assay [6] and in assay [7] was > 100 µM in each case.
Regarding `CC(=O)Oc1ccccc1C(=O)N=C1[Se]CCN1C(=O)c1ccccc1OC(C)=O`, the GI50 in assay [1] is 0.462 µM; in assay [2], 0.637 µM; in assay [8], 2.15 µM; in assay [3] it was 1.1 µM; in assay [4], 0.472 µM; in assay [6], 0.483 µM. Further, the GI50 in [7] was 0.355 µM; in assay [9], 0.38 µM. The TGI in assay [1] was 1.87 µM; in assay [2] it was 4.46 µM; in assay [8] it was 5.79 µM; in assay [3] it was > 100 µM; in [4], 3.06 µM; in assay [6] it was 1.79 µM. The TGI came to 1.51 µM in [7] and 1.45 µM in [9].
Turning to `O=C(/C=C/c1c(O)ccc2ccccc12)c1ccc2ccccc2c1`, the TGI in assay [2], in assay [8], in assay [3], in [5], in [6] and in [7] was > 100 µM in each case. The TGI in assay [9] is > 100 µM.
With `NC1CCCC[C@H]1N.N[C@@H]1CCCC[C@@H]1N.O=C(P(=O)([O-])[O-])P(=O)([O-])[O-].[Pt+4].[Pt+4]`, the GI50 in assay [2] was 70.9 µM; in assay [8], > 100 µM; in [3], > 100 µM; in assay [5], > 100 µM; in assay [6], > 100 µM; in [7] it was > 100 µM. The GI50 in assay [9] is > 100 µM. For the same molecule, the TGI in assay [2], in [8], in assay [3], in assay [5], in [6] and in assay [7] was > 100 µM throughout. In assay [9], the TGI is > 100 µM.
On to `CSC1(CC(=O)N(C)C)C(=O)Nc2ccccc21` (centres undefined), for which the TGI in [1], in [2], in [8], in assay [3], in assay [5] and in [6] was > 100 µM throughout. The TGI in assay [9] and in assay [10] was > 100 µM throughout.
Consider `CCOC(=O)[C@H](CCCNC(=O)OC(C)(C)C)NCc1ccc(OC)c(OC)c1`, for which the TGI in [2], in [8], in assay [3], in [5], in assay [6] and in [7] was > 100 µM in each case. Besides, the TGI in [9] was > 100 µM.
In the case of `O=S(O)CCCCSSCc1ccccc1CSSCCCCS(=O)O`, the TGI was 20.6 µM in assay [2]; > 100 µM in [8]; 59.6 µM in assay [3]; 39.3 µM in [6]; 22.8 µM in assay [7]; 28.5 µM in assay [9].
For the molecule `CCN(CC)CC(C)(C)C(=O)/C=C/c1ccc(Cl)c(Cl)c1`, the GI50 in assay [1] was 1.6 µM; in assay [8], 1.61 µM; in [3], 1.67 µM; in assay [4], 2.06 µM; in assay [5], 1.71 µM; in [6], 1.56 µM. In addition, the GI50 in assay [7] is 1.59 µM; in [9] it was 1.8 µM. The TGI came out at 3.28 µM in assay [1]; 3.08 µM in [8]; 3.28 µM in assay [3]; 4.26 µM in assay [4]; 3.35 µM in [5]; 3.22 µM in assay [6]. The TGI in assay [7] came out at 3.1 µM; in assay [9], 3.61 µM.
In the case of `O=C(CSc1nnc(-c2ccccc2NC(=O)C(F)(F)F)c(=O)[nH]1)NC(=O)Nc1ccccc1`, the TGI in assay [2], in assay [8], in assay [3], in assay [5], in [6] and in [7] was > 100 µM throughout. For the same molecule, in [9], the TGI was > 100 µM.

The values are drawn from PubChem BioAssay (NCI).
